In US20260034192A1 (University of Saskatchewan, priority 2022, published 2026):
Where “and” joins values, the source holds several entries; their conditions need not be identical. Equal values may be shown once. Marks after values point to notes of the source that are not given here. Square brackets hold non-standard residues; d marks the D form. Peptide text beside a SMILES is read from it. dPhe(4-Cl) = N[C@H](Cc1ccc(Cl)cc1)C(=O)O; d2Nal = N[C@H](Cc1ccc2ccccc2c1)C(=O)O; dCit = NC(=O)NCCC[C@@H](N)C(=O)O; d3Pal = N[C@H](Cc1cccnc1)C(=O)O

Assays:
[1] = tested on: mature Angus heifers; test: Cetrorelix versus estradiol benzoate synchronization protocol with AI, random day of cycle (Example 7); format: in vivo, cattle
Procedure: This experiment was conducted on 38 mature Angus heifers at the Federal University of Santa Maria in Brazil. Heifers on a random day of the cycle (defined as Day 0) were divided into 2 groups (n=19 per group) and treated with a single i/m injection of 3 mg cetrorelix or with estradiol benzoate (1 mg i/m). A progesterone-releasing device (CIDR) was placed in the vagina of heifers at this time. Eight days after the cetrorelix or estradiol treatments, heifers were given 500 ug cloprostenol (prostaglandin analog) i/m injections and the CIDR device was removed. […] Heifers were given 250 ug gonadorelin acetate (GnRH analog) i/m injection at the time of artificial insemination. […] Pregnancy diagnosis was done 29-30 days after artificial insemination.

[2] = tested on: alpacas; test: Alpaca Cetrorelix known stage study, two injections (Example 2); format: in vivo; conditions: for Wave emergence after the first Cetrorelix injection, average: 2 x 1.5 mg i/m, D5 and D10 groups combined
Description: Methods: The specific objective of this experiment was to identify the pattern of growth for the dominant follicle in alpacas following treatment with a GnRH antagonist during two contrasting stages of the follicular wave. Based on data from natural spontaneous waves in alpacas, the dominant follicle is expected to be in early- to mid-growing phase (6 to 7 mm in diameter) on Day 5 and in mid-static phase (9 to 10 mm) on Day 10, so the treatments were planned to begin on these days.
The experimental design is illustrated FIG. 3. Transrectal ovarian ultrasonography was performed using an Esoate My Lab 5 ultrasound machine and a 7.5 linear array transducer attached to a custom-build rigid PVC pipe handle. The pipe was slightly curved at the transducer end to facilitate manipulation of the transducer. The transducer and the plastic handle were lubricated using methyl cellulose ultrasound gel and inserted slowly into the rectum after manual removal of the faeces. Reproductive track and ovaries were located and 10 to 20 second video clips of left and right ovary were recorded. Sketches of ovaries were drawn daily at the time of imaging to record location, size and number of follicles >2 mm in diameter as well as the size and location of the corpus luteum (if present). Ultrasound examinations were performed daily. The experimental data recording began when a spontaneous emergence of a new follicular wave detected in an animal (defined as Extant follicular wave). The day of wave emergence was designated as Day 0 and was defined retrospectively as the first detection of the dominant follicle at 4 or 5 mm size with concomitant increase in number of 3-4 mm follicles.
The first group of alpacas (Control group) were given no treatment, their ovaries were examined daily and blood samples were obtained daily from Day 4 to 12 to compare hormonal data from analogous days after Cetrorelix treatment. The second group of alpacas (D5 group) were given the first intramuscular injection of 1.5 mg (3 mL of 0.5 mg per mL solution) Cetrorelix acetate on Day 5 and a second injection of 3 mL on Day 6 (i.e., two i/m injections of 1.5 mg Cetrorelix at 24 hour interval for a total dose of 3 mg). The Cetrorelix dose administered was approximately equal to 20 ug/Kg body weight per day (considering average body weight of alpaca=75 kg) and based on the previous studies in llama and cattle (Silva et al, 2011, Ulker et al 2001). Alpacas in the third group (D10 group) were given the first intramuscular injection of 1.5 mg Cetrorelix acetate on Day 10 and a second injection of 1.5 mg on Day 11.
Cetrorelix treatments were given during the extant follicular wave. Changes in the size of the dominant follicle, largest subordinate follicle, and the number of ≥3 mm follicles were recorded daily from spontaneous emergence of extant follicular wave to Day 6 of next (post-treatment) follicular wave emergence. The inter-wave interval was determined based on duration between emergence of successive follicular waves.
Blood samples (5 to 8 mL) were collected in heparinized tubes (BD Vacutainer, BD Franklin Lakes, NJ, USA) via jugular venipuncture. Blood samples were kept on ice packs till centrifugation at 200 rpm (within 1 hr of collection) to obtain plasma samples that were immediately frozen at −20° C. until measurement of plasma LH. Plasma samples were obtained on Day 4 to 7 in Group 2 (that is, 1 day before to 1 day after Cetrorelix treatment) and on Day 9 to 12 in Group 3. For direct comparison, plasma samples were obtained from Day 4 to 12 in control group.

[3] = 3 mg cetrorelix or 1 mg estradiol benzoate i/m
[4] = 2 x 1.5 mg i/m starting Day 5 (D 5)
[5] = 2 x 1.5 mg i/m starting Day 10 (D 10)
[6] = 2 x 1.5 mg i/m starting Day 10 (D 10), n = 6

With `CC(=O)N[C@H](Cc1ccc2ccccc2c1)C(=O)N[C@H](Cc1ccc(Cl)cc1)C(=O)N[C@H](Cc1cccnc1)C(=O)N[C@@H](CO)C(=O)N[C@@H](Cc1ccc(O)cc1)C(=O)N[C@H](CCCNC(N)=O)C(=O)N[C@@H](CC(C)C)C(=O)N[C@@H](CCCNC(=N)N)C(=O)N1CCC[C@H]1C(=O)N[C@H](C)C(N)=O` [Cetrorelix, N-acetyl-3-(2-naphthyl)-D-alanyl-4-chloro-D-phenylalanyl-3-(3-pyridyl)-D-alanyl-L-seryl-L-tyrosyl-D-citrullyl-L-leucyl-L-arginyl-L-prolyl-D-alaninamide] (Ac-[d2Nal][dPhe(4-Cl)][d3Pal]SY[dCit]LRP[dA]-NH2) the “Heifers showing estrous behavior, compared with estradiol-progesterone treatment” value ([1]; 3 mg cetrorelix i/m) was “greater proportion”, the “Pregnant/Double AI” value [1, 3] was 7/9 and the “Pregnant/Double AI, percent” value [1, 3] was 78%. The “Pregnant/Single AI” value [1, 3] was 8/10, the “Pregnant/Single AI, percent” value [1, 3] was 80% and the “Ovulations that occurred between 72 to 96 hr after prostaglandin injection” value ([1]; cetrorelix protocol) was 90%. The “Pregnant/Total, percent (pregnancy rate)” value ([1]; random day of cycle, 3 mg cetrorelix i/m or 1 mg estradiol benzoate i/m, CIDR 8 days) was 79%, the Pregnant/Total ([1]; random day of cycle, 3 mg cetrorelix i/m or 1 mg estradiol benzoate i/m, CIDR 8 days, PGF, GnRH at AI) was 15/19 and the “Extant Wave: Total Number of Follicles on Day of Emergence” value ([2]; 1.5 mg Cetrorelix acetate i/m twice at 24 hr interval starting Day 5 (D 5)) was 10.71 ± 0.97. The “Extant Wave: Total Number of Follicles on Day of Emergence” value ([2]; 1.5 mg Cetrorelix acetate i/m twice at 24 hr interval starting Day 10 (D 10)) was 9.14 ± 1.39, the “Day of largest subordinate follicle maximum diameter” value [2, 4] was 1.86 ± 1.01 days and the “Degree of Synchrony: Days from treatment to next wave emergence” value [2, 4] was 7.71 ± 0.36 days and 7.7 ± 0.36 days. For the same compound, the “Dominant Follicle Diameter on Day 5 (mm)” value [2, 4] was 6.64 ± 0.43 mm, the “Dominant Follicle Diameter on Day 10 (mm)” value [2, 4] was 5.50 ± 0.87^b mm and the “Dominant Follicle Diameter on Day of Cetrorelix Treatment (mm)” value [2, 4] was 6.64 ± 0.43^a mm. The “Dominant Follicle End of Growth (days)” value [2, 4] was 4.86 ± 0.40^b days, the “Interwave Interval” value [2, 4] was 12.7 ± 0.36 days and 12.7 days and the “Interwave Interval (days)” value [2, 4] was 12.71 ± 0.36^b days. For the same compound, the “Largest Subordinate Follicle Diameter on Day 5 (mm)” value [2, 4] was 3.21 ± 0.21 mm, the “Largest Subordinate Follicle Diameter on Day 10 (mm)” value [2, 4] was 2.71 ± 0.81 mm and the “Largest Subordinate Follicle Diameter on Day of Cetrorelix Treatment (mm)” value [2, 4] was 3.21 ± 0.21 mm. For the same compound, the “Largest Subordinate Follicle Maximum Diameter (mm)” value [2, 4] was 4.57 ± 0.40 mm, the “Next Wave: Total Number of Follicles on Day of Emergence” value [2, 4] was 13.14 ± 1.47 and the “Day of dominant follicle maximum diameter” value [2, 5] was 10.3±0.68 days and 10.29 ± 0.68^a days. The “Day of largest subordinate follicle maximum diameter” value [2, 5] was 6.00 ± 1.36 days, the “Dominant Follicle Diameter on Day 5 (mm)” value [2, 5] was 9.71 ± 1.77 mm and the “Dominant Follicle Diameter on Day 10 (mm)” value [2, 5] was 10.36 ± 0.85^a mm. For the same compound, the “Dominant Follicle Diameter on Day of Cetrorelix Treatment (mm)” value [2, 5] was 10.36 ± 0.85^b mm, the “Dominant Follicle End of Growth (days)” value [2, 5] was 8.00 ± 0.38^a days and the “Dominant Follicle Length of Static Phase” value [2, 5] was 4.9 ± 0.40 days. For the same compound, the “Dominant Follicle Length of Static Phase (days)” value [2, 5] was 4.86 ± 0.40^ab days, the “Dominant Follicle Maximum Diameter (mm)” value [2, 5] was 10.9±0.70 mm and 10.93 ± 0.70^a mm and the “Dominant Follicle Onset of Regression” value [2, 5] was 12.9 ± 0.34 days. For the same compound, the “Dominant Follicle Onset of Regression (days)” value [2, 5] was 12.86 ± 0.34^a days, the “Largest Subordinate Follicle Diameter on Day 5 (mm)” value [2, 5] was 4.21 ± 0.76 mm and the “Largest Subordinate Follicle Diameter on Day 10 (mm)” value [2, 5] was 4.00 ± 0.97 mm. The “Largest Subordinate Follicle Diameter on Day of Cetrorelix Treatment (mm)” value [2, 5] was 4.00 ± 0.97 mm, the “Largest Subordinate Follicle Maximum Diameter (mm)” value [2, 5] was 5.79 ± 1.02 mm and the “Interwave Interval” value [2, 6] was 17.71 ± 0.52 days and 18.17 days. For the same compound, the “Interwave Interval (days)” value [2, 6] was 17.71 ± 0.52^c# days, the “Next Wave: Total Number of Follicles on Day of Emergence” value [2, 6] was 12.14 ± 1.08 and the “Wave emergence after the first Cetrorelix injection, average” value [2] was 7.92 ± 0.24 days. The “Wave emergence after the first Cetrorelix injection, average” value ([2]; listed as Cetrorelix acetate) was “about 7.92±0.24 days”, the “Interval from first treatment to next wave emergence, range” value ([2]; D5 group) was 7 to 9 days and the “Interval from first treatment to next wave emergence, range” value ([2]; D10 group) was 7 to 9 days.
